In patent publication US20080262228A1, “Metabolites of 5-fluoro-8- quinoline and methods of preparation and uses thereof” (Wyeth, priority 2006, published 2008):
Several values for one entry are separate records, joined by “and”; a condition that tells them apart may be missing. Identical values can stand only once.

Assay: In vivo metabolism and excretion of [14C]COMPOUND I in male beagle dogs, single oral 3 mg/kg dose
Design: species or system dog
Conditions: for Cumulative Percent Excretion of Radioactivity in Feces (includes cage rinse): mean ± SD (n = 4)
Procedure: Dose preparation, animal dosing, and specimen collection were performed at Wyeth Research, Collegeville, Pa. The vehicle contained 2% (w/v) polysorbate 80, NF and 0.5% (w/v) methylcellulose (4000 cps) in water. [^14C]COMPOUND I trisuccinate salt (50.25 mg) and non-labeled COMPOUND I trisuccinate salt (331.9 mg) were suspended in 72 mL of the vehicle by grinding with a mortar and a pestle. The target [^14C]COMPOUND I concentration was approximately 3 mg/mL as free base and 48 μCi/mL with a target specific activity of 16 μCi/mg. Three pre- and post-dose aliquots (100 μL) were taken for the determination of radiochemical purity, drug and radioactivity concentrations and specific activity (see below).
Four male beagle dogs, weighing from 9.4 to 11.5 kg at the time of dosing, were from an in-house colony. Non-fasted dogs were given a single 3 mg/kg (approximately 48 μCi/kg) dose of [^14C]COMPOUND I at a volume of 1 mL/kg via intragastric gavage. Animals were provided Purina dog chow and water ad libitum, and were housed individually in metabolic cages.
Blood samples were collected from the jugular vein at 1, 4, 8, 24, 48, 72 and 120 hr after dose administration into tubes containing potassium EDTA as the anticoagulant and then placed on ice. Aliquots of 200 μL were removed and plasma was harvested immediately from the remaining blood by centrifugation at 4° C. Urine samples were collected into tubes on dry ice from 0-24 and 24-48 hr, and then at ambient temperature at 24 hr intervals for 7 days post-dose. Fecal samples were collected at 24 hr intervals for 7 days post-dose at room temperature. Cage rinses were collected daily by rinsing each cage with approximately 500 mL of 30% ethanol in water. The dose aliquots and biological specimens were stored at approximately −70° C. until analysis.
Triplicate aliquots of diluted dose (20 μL), dose fractions (10 μL) and plasma (50 μL), urine (200 μL) and cage wash (500 μL) from individual dogs were analyzed for radioactivity content. The samples were assayed in a Tri-Carb Model 3100TR liquid scintillation counter (Perkin Elmer) using 5 mL of Ultima Gold scintillation cocktail.
Fecal samples from individual dogs were weighed and homogenized in water at a volume-to-weight ratio of about 4:1 with a Silverson sealed-unit homogenizer at ambient temperature. Triplicate aliquots of whole blood (50 μL) and fecal homogenates (approximately 0.2 g) were placed into Combusto-cones with Combusto-pads and allowed to dry overnight. Samples were combusted with a model 307 Tri-Carb Sample Oxidizer, equipped with an Oximate-80 Robotic Automatic Sampler (Perkin Elmer). The liberated ^14CO2 was trapped with Carbo-Sorb® E carbon dioxide absorber, mixed with PermaFluor® E+liquid scintillation cocktail, and counted in a Tri-Carb Model 3100 TR/LL liquid scintillation counter.
Plasma samples were pooled by mixing equal volumes from four animals at each time point (1, 4, 8 and 24 hr). Aliquots of 2.0 mL of pooled plasma were mixed with 2.0 mL of acetonitrile, placed on ice for about 10 min, and then centrifuged at 4° C. The supernatant was transferred to a clean tube. The protein pellets were extracted two more times with 2.0 mL of acetonitrile. The supernatants from precipitation and extraction of each sample were pooled, mixed, and evaporated at 22° C. under nitrogen in a TurboVap LV evaporator (Caliper Life Sciences, Hopkinton, Mass.) to about 0.8 mL. The concentrated extract was centrifuged, the supernatant volume measured and the extraction efficiency was determined by analyzing duplicate 10 μL aliquots for radioactivity concentrations. For metabolite profiling, an aliquot of the supernatant (200 μL) was injected onto the HPLC column as described hereinbelow, and fractions were collected at 20 second intervals into 96-well Lumaplates (Perkin Elmer).

[1] = 1 hr, 3 mg/kg oral, individual dogs, 3 mg/kg
[2] = 4 hr, 3 mg/kg oral, individual dogs, 3 mg/kg
[3] = 8 hr, 3 mg/kg oral, individual dogs, 3 mg/kg
[4] = 24 hr, 3 mg/kg oral, individual dogs, 3 mg/kg
[5] = 48 hr, 3 mg/kg oral, individual dogs, 3 mg/kg
[6] = 72 hr, 3 mg/kg oral, individual dogs, 3 mg/kg
[7] = 120 hr, 3 mg/kg oral, individual dogs, 3 mg/kg
[8] = 120 hr, 3 mg/kg oral, mean ± SD

Compound: COc1cc(N2CCN(C3CCN(c4ccc(F)c5cccnc45)CC3)CC2)c2ncccc2c1 [[^14C]COMPOUND I, [piperazine-^14C(U)]-5-fluoro-8-(4-(4-(6-methoxyquinolin-8-yl)piperazin-1-yl)piperidin-1-yl)quinoline trisuccinate]
- Recovery of Radioactivity in Cage Rinse (Percent of Dose) (0-24 hr, 3 mg/kg oral, individual dogs, 3 mg/kg): 0.18% and 1.64% and 1.74% and 0.78%
- Recovery of Radioactivity in Cage Rinse (Percent of Dose) (0-24 hr, 3 mg/kg oral, mean ± SD): 1.09 ± 0.74%
- Recovery of Radioactivity in Cage Rinse (Cumulative Percent of Dose) (0-48 hr, 3 mg/kg oral, individual dogs, 3 mg/kg): 0.46% and 2.57% and 2.20% and 1.75%
- Recovery of Radioactivity in Cage Rinse (Cumulative Percent of Dose) (0-48 hr, 3 mg/kg oral, mean ± SD): 1.75 ± 0.92%
- Cumulative Percent Excretion of Radioactivity in Feces (includes cage rinse) (0-48 hr, 3 mg/kg oral, 3 mg/kg): 61.2% and 61.2 ± 14.1%
- Recovery of Radioactivity in Cage Rinse (Cumulative Percent of Dose) (0-72 hr, 3 mg/kg oral, individual dogs, 3 mg/kg): 0.65% and 3.00% and 2.57% and 1.97%
- Recovery of Radioactivity in Cage Rinse (Cumulative Percent of Dose) (0-72 hr, 3 mg/kg oral, mean ± SD): 2.05 ± 1.02%
- Recovery of Radioactivity in Cage Rinse (Cumulative Percent of Dose) (0-96 hr, 3 mg/kg oral, individual dogs, 3 mg/kg): 0.72% and 3.27% and 2.66% and 2.05%
- Recovery of Radioactivity in Cage Rinse (Cumulative Percent of Dose) (0-96 hr, 3 mg/kg oral, mean ± SD): 2.18 ± 1.09%
- Recovery of Radioactivity in Cage Rinse (Cumulative Percent of Dose) (0-120 hr, 3 mg/kg oral, individual dogs, 3 mg/kg): 0.75% and 3.39% and 2.73% and 2.12%
- Recovery of Radioactivity in Cage Rinse (Cumulative Percent of Dose) (0-120 hr, 3 mg/kg oral, mean ± SD): 2.25 ± 1.13%
- Recovery of Radioactivity in Cage Rinse (Cumulative Percent of Dose) (0-144 hr, 3 mg/kg oral, individual dogs, 3 mg/kg): 0.79% and 3.49% and 2.77% and 2.17%
- Recovery of Radioactivity in Cage Rinse (Cumulative Percent of Dose) (0-144 hr, 3 mg/kg oral, mean ± SD): 2.31 ± 1.15%
- Recovery of Radioactivity in Cage Rinse (Cumulative Percent of Dose) (0-168 hr, 3 mg/kg oral, individual dogs, 3 mg/kg): 0.84% and 3.58% and 2.83% and 2.20%
- Recovery of Radioactivity in Cage Rinse (Cumulative Percent of Dose) (0-168 hr, 3 mg/kg oral, mean ± SD): 2.36 ± 1.16%
- Cumulative Percent Excretion of Radioactivity in Feces (includes cage rinse) (0-168 hr, 3 mg/kg oral, 3 mg/kg): 72.8% and 72.8 ± 3.28%
- dose excreted in urine (3 mg/kg oral): less than 7%
- Recovery of Radioactivity in Cage Rinse (Percent of Dose) (24-48 hr, 3 mg/kg oral, individual dogs, 3 mg/kg): 0.28% and 0.93% and 0.46% and 0.97%
- Recovery of Radioactivity in Cage Rinse (Percent of Dose) (24-48 hr, 3 mg/kg oral, mean ± SD): 0.66 ± 0.34%
- Recovery of Radioactivity in Cage Rinse (Percent of Dose) (48-72 hr, 3 mg/kg oral, individual dogs, 3 mg/kg): 0.19% and 0.43% and 0.37% and 0.22%
- Recovery of Radioactivity in Cage Rinse (Percent of Dose) (48-72 hr, 3 mg/kg oral, mean ± SD): 0.30 ± 0.12%
- Recovery of Radioactivity in Cage Rinse (Percent of Dose) (72-96 hr, 3 mg/kg oral, individual dogs, 3 mg/kg): 0.07% and 0.27% and 0.09% and 0.08%
- Recovery of Radioactivity in Cage Rinse (Percent of Dose) (72-96 hr, 3 mg/kg oral, mean ± SD): 0.13 ± 0.10%
- Recovery of Radioactivity in Cage Rinse (Percent of Dose) (96-120 hr, 3 mg/kg oral, individual dogs, 3 mg/kg): 0.03% and 0.12% and 0.07% (2×)
- Recovery of Radioactivity in Cage Rinse (Percent of Dose) (96-120 hr, 3 mg/kg oral, mean ± SD): 0.07 ± 0.04%
- Recovery of Radioactivity in Cage Rinse (Percent of Dose) (120-144 hr, 3 mg/kg oral, individual dogs, 3 mg/kg): 0.04% (2×) and 0.10% and 0.05%
- Recovery of Radioactivity in Cage Rinse (Percent of Dose) (120-144 hr, 3 mg/kg oral, mean ± SD): 0.06 ± 0.03%
- Recovery of Radioactivity in Cage Rinse (Percent of Dose) (144-168 hr, 3 mg/kg oral, individual dogs, 3 mg/kg): 0.05% and 0.09% and 0.06% and 0.03%
- Recovery of Radioactivity in Cage Rinse (Percent of Dose) (144-168 hr, 3 mg/kg oral, mean ± SD): 0.06 ± 0.03%
- Concentration of Total Radioactivity in Plasma [1]: 336 ng equivalents/mL and 426 ng equivalents/mL and 496 ng equivalents/mL and 437 ng equivalents/mL
- Concentration of Total Radioactivity in Whole Blood [1]: 270 ng equivalents/mL and 284 ng equivalents/mL and 404 ng equivalents/mL and 375 ng equivalents/mL
- Concentration of Total Radioactivity in Whole Blood (1 hr, 3 mg/kg oral, mean ± SD): 333 ± 66.3 ng equivalents/mL
- Concentration of Total Radioactivity in Plasma (1 hr, 3 mg/kg oral, mean ± SD, 3 mg/kg): 424±66.1 ng equivalents/mL
- Concentration of Total Radioactivity in Plasma [2]: 166 ng equivalents/mL and 228 ng equivalents/mL and 326 ng equivalents/mL and 181 ng equivalents/mL
- Concentration of Total Radioactivity in Whole Blood [2]: 138 ng equivalents/mL and 201 ng equivalents/mL and 191 ng equivalents/mL and 281 ng equivalents/mL
- Concentration of Total Radioactivity in Plasma (4 hr, 3 mg/kg oral, mean ± SD): 225 ± 72.2 ng equivalents/mL
- Concentration of Total Radioactivity in Whole Blood (4 hr, 3 mg/kg oral, mean ± SD): 203 ± 59.0 ng equivalents/mL
- Concentration of Total Radioactivity in Plasma [3]: 102 ng equivalents/mL and 135 ng equivalents/mL and 171 ng equivalents/mL and 121 ng equivalents/mL
- Concentration of Total Radioactivity in Whole Blood [3]: 93.5 ng equivalents/mL and 131 ng equivalents/mL and 160 ng equivalents/mL and 126 ng equivalents/mL
- Concentration of Total Radioactivity in Plasma (8 hr, 3 mg/kg oral, mean ± SD): 132 ± 29.2 ng equivalents/mL
- Concentration of Total Radioactivity in Whole Blood (8 hr, 3 mg/kg oral, mean ± SD): 128 ± 27.2 ng equivalents/mL
- Concentration of Total Radioactivity in Plasma [4]: 49.1 ng equivalents/mL and 69.3 ng equivalents/mL and 155 ng equivalents/mL and 89.7 ng equivalents/mL
- Concentration of Total Radioactivity in Whole Blood [4]: 41.2 ng equivalents/mL and 63.3 ng equivalents/mL and 98.5 ng equivalents/mL and 82.9 ng equivalents/mL
- Concentration of Total Radioactivity in Whole Blood (24 hr, 3 mg/kg oral, mean ± SD): 71.5 ± 24.8 ng equivalents/mL
- Concentration of Total Radioactivity in Plasma (24 hr, 3 mg/kg oral, mean ± SD, 3 mg/kg): 90.8±45.9 ng equivalents/mL
- Concentration of Total Radioactivity in Plasma [5]: 25.5 ng equivalents/mL and 28.2 ng equivalents/mL and 58.5 ng equivalents/mL and 40.7 ng equivalents/mL
- Concentration of Total Radioactivity in Whole Blood [5]: 22.2 ng equivalents/mL and 30.2 ng equivalents/mL and 40.8 ng equivalents/mL and 42.2 ng equivalents/mL
- Concentration of Total Radioactivity in Plasma (48 hr, 3 mg/kg oral, mean ± SD): 38.2 ± 15.1 ng equivalents/mL
- Concentration of Total Radioactivity in Whole Blood (48 hr, 3 mg/kg oral, mean ± SD): 33.9 ± 9.44 ng equivalents/mL
- Concentration of Total Radioactivity in Plasma [6]: 17.6 ng equivalents/mL and 21.4 ng equivalents/mL and 73.6 ng equivalents/mL and 39.0 ng equivalents/mL
- Concentration of Total Radioactivity in Whole Blood [6]: 16.8 ng equivalents/mL and 22.6 ng equivalents/mL and 25.2 ng equivalents/mL and 31.6 ng equivalents/mL
- Concentration of Total Radioactivity in Plasma (72 hr, 3 mg/kg oral, mean ± SD): 37.9 ± 25.6 ng equivalents/mL
- Concentration of Total Radioactivity in Whole Blood (72 hr, 3 mg/kg oral, mean ± SD): 24.1 ± 6.14 ng equivalents/mL
- Concentration of Total Radioactivity in Plasma [7]: 45.1 ng equivalents/mL (2×) and 46.0 ng equivalents/mL and 46.7 ng equivalents/mL
- Concentration of Total Radioactivity in Whole Blood [7]: 16.6 ng equivalents/mL and 18.4 ng equivalents/mL and 18.0 ng equivalents/mL and 24.0 ng equivalents/mL
- Concentration of Total Radioactivity in Plasma [8]: 45.7 ± 0.78 ng equivalents/mL
- Concentration of Total Radioactivity in Whole Blood [8]: 19.3 ± 3.26 ng equivalents/mL
- administered dose excreted after the completion of the study (estimated from radioactivity in urine collected for several additional weeks): about 5%
